This note sets out measurements from patent publication US20230265151A1, “GIP/GLP1 CO-AGONIST COMPOUNDS” (priority 2020, published 2023).

What all share (format): cell-based
Assay [1] has as its target hGLP-1R (Homo sapiens, UniProt P43220). The assay can be described thus: Functional cAMP formation (HTRF) in HEK-293 clonal cells expressing hGLP-1R, 0.1% bovine casein, without or with 1.0% human serum albumin. Also noted: expressed in transfected cells. The following applies: 37° C.; for EC50: geometric mean. In a few lines: (§1)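 Cells were stimulated with peptide for 30 min at 37° C, then intracellular cAMP was measured by competitive HTRF (665/620 nm ratio) and converted to nM using a cAMP standard curve. Relative EC50 and Emax came from four-parameter logistic fits of percent maximal response against peptide concentration.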
(In general: Cyclic AMP is a second messenger, typically raised through Gs and lowered through Gi signalling.)

In assay [2] the target is T1, hGCGR (Homo sapiens, UniProt P47871).
T1 construct: expressed in transfected cells
Briefly: Functional cAMP formation (HTRF) in HEK-293 clonal cells expressing hGCGR, 0.1% bovine casein, without or with 1.0% human serum albumin. In a few lines: as §1

The target of assay [3] is T2, hGIPR (Homo sapiens, UniProt P48546).
T2 construct: expressed in transfected cells
T2 sequence (P48546 22-466): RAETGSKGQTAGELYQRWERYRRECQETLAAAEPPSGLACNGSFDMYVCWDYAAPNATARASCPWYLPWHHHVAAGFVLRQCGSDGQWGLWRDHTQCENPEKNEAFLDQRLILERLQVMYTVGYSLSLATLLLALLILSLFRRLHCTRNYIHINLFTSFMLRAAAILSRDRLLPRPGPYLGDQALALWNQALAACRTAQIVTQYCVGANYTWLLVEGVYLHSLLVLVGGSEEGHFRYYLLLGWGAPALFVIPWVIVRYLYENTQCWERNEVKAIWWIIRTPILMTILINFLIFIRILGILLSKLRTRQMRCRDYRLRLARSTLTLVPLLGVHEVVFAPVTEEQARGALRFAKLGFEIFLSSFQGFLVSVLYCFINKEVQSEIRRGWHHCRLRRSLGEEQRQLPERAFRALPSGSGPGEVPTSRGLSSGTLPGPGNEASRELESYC
The assay can be described thus: Functional cAMP formation (HTRF) in HEK-293 clonal cells expressing hGIPR, 0.1% bovine casein, without or with 1.0% human serum albumin. The following applies: for EC50: cAMP, 0.1% bovine casein (no human serum albumin), geometric mean, read-out: hGIPR EC50, nM (SEM, n). An outline of the steps: as §1

[4] abbreviates: cAMP, 0.1% bovine casein (no human serum albumin), read-out: hGLP-1R EC50, nM (SEM, n).
Where [5] appears, read: 0.1% bovine casein and 1.0% human serum albumin, 37° C., geometric mean, read-out: hGCGR EC50, nM (SEM, n).
Setting [6] is: cAMP, 37° C., 0.1% bovine casein (no human serum albumin), geometric mean, read-out: hGCGR EC50, nM (SEM, n).
[7] abbreviates: HEK293, 0.1% bovine casein and 1.0% human serum albumin, 37° C., percent of maximal response to GIP(1-42)NH2, read-out: hGIPR Emax, % ± SEM.
Setting [8] is: HEK293, cAMP, 37° C., 0.1% bovine casein, percent of maximal response to GIP(1-42)NH2, arithmetic mean, read-out: hGIPR Emax, % ± SEM.

Like-named read-outs stand apart in the source and are kept apart here.

Chain of hGLP-1R (P43220 24-463): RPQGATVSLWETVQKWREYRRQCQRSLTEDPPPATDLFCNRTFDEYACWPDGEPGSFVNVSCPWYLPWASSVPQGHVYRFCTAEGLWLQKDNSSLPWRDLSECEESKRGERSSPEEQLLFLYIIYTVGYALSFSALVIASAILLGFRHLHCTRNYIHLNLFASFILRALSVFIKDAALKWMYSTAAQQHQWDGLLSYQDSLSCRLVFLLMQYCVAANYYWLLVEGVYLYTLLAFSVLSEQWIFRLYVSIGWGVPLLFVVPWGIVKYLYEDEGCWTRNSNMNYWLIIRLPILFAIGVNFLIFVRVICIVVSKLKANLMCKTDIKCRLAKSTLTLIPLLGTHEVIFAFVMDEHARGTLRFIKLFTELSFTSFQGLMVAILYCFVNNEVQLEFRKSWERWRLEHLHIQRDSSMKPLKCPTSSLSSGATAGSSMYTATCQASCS
T1 sequence (P47871 26-477): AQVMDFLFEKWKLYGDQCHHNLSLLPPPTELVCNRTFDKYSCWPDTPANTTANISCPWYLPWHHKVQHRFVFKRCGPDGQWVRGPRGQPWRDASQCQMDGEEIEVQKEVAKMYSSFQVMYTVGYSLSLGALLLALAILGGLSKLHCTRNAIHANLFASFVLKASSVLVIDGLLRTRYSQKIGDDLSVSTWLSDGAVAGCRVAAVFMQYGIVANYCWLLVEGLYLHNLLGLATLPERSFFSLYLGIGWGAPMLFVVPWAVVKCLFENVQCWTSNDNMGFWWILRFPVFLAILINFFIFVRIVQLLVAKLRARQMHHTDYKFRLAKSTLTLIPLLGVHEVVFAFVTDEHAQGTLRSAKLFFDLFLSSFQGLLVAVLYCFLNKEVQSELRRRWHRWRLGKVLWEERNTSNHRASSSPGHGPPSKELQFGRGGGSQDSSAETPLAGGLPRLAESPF

Turning to `CC[C@H](C)[C@H](NC(=O)[C@H](CCCN)NC(=O)[C@H](CC(=O)O)NC(=O)[C@H](CC(C)C)NC(=O)[C@](C)(CC(C)C)NC(=O)[C@@H](NC(=O)[C@](C)(CO)NC(=O)[C@H](Cc1ccc(O)cc1)NC(=O)[C@H](CC(=O)O)NC(=O)[C@H](CO)NC(=O)[C@@H](NC(=O)[C@](C)(Cc1ccccc1F)NC(=O)[C@@H](NC(=O)CNC(=O)[C@H](CCC(=O)O)NC(=O)C(C)(C)NC(=O)[C@@H](N)Cc1ccc(O)cc1)[C@@H](C)O)[C@@H](C)O)[C@@H](C)CC)C(=O)N[C@@H](C)C(=O)N[C@@H](CCC(N)=O)C(=O)NC(C)(C)C(=O)N[C@@H](CCC(=O)O)C(=O)N[C@@H](Cc1ccccc1)C(=O)N[C@H](C(=O)N[C@@H](CCCCNC(=O)COCCOCCNC(=O)COCCOCCNC(=O)CC[C@H](NC(=O)CCCCCCCCCCCCC(=O)O)C(=O)O)C(=O)N[C@@](C)(Cc1ccc(O)cc1)C(=O)N[C@@H](CC(C)C)C(=O)N[C@H](C(=O)N[C@@H](CCCCNC(=O)COCCOCCNC(=O)COCCOCCNC(=O)CC[C@H](NC(=O)CCCCCCCCCCCCC(=O)O)C(=O)O)C(=O)NCC(=O)NCC(=O)N1CCC[C@H]1C(=O)N[C@@H](CO)C(=O)N[C@@H](CO)C(=O)NCC(=O)N[C@@H](C)C(=O)N1CCC[C@H]1C(=O)N1CCC[C@H]1C(=O)N1CCC[C@H]1C(=O)N[C@@H](CO)C(N)=O)[C@@H](C)CC)[C@@H](C)CC` [Example 303], the Emax in assay [1] (HEK293, 0.1% bovine casein and 1.0% human serum albumin, percent of maximal response to GLP-1(7-36)NH2, read-out: hGLP-1R Emax, % ± SEM) was 111%; in assay [3] (setting [7]), 89.8%; in assay [3] (setting [8]), 100%. In addition, the EC50 in assay [1] (setting [4]) was 0.389 nM; in assay [2] (setting [5]), greater than 9950 nM; in assay [2] (setting [6]), greater than 9950 nM; in assay [3] (37° C.) it was 0.0178 nM.

Turning to `CCCC[C@H](NC(=O)[C@H](CC(=O)O)NC(=O)[C@H](CO)NC(=O)[C@@H](NC(=O)[C@](C)(Cc1ccccc1F)NC(=O)[C@@H](NC(=O)CNC(=O)[C@H](CCC(=O)O)NC(=O)C(C)(C)NC(=O)[C@@H](N)Cc1ccc(O)cc1)[C@@H](C)O)[C@@H](C)O)C(=O)N[C@@H](CO)C(=O)N[C@H](C(=O)N[C@@](C)(CC(C)C)C(=O)N[C@@H](CC(C)C)C(=O)N[C@@H](CC(=O)O)C(=O)N[C@@H](CCCN)C(=O)N[C@H](C(=O)N[C@@H](C)C(=O)N[C@@H](CCC(N)=O)C(=O)NC(C)(C)C(=O)N[C@@H](CCC(=O)O)C(=O)N[C@@H](Cc1ccccc1)C(=O)N[C@H](C(=O)N[C@@H](CCCCNC(=O)COCCOCCNC(=O)COCCOCCNC(=O)CC[C@H](NC(=O)CCCCCCCCCOc1ccc(C(=O)O)cc1)C(=O)O)C(=O)N[C@@](C)(Cc1ccc(O)cc1)C(=O)N[C@@H](CC(C)C)C(=O)N[C@H](C(=O)N[C@@H](CCCCNC(=O)COCCOCCNC(=O)COCCOCCNC(=O)CC[C@H](NC(=O)CCCCCCCCCOc1ccc(C(=O)O)cc1)C(=O)O)C(=O)NCC(=O)NCC(=O)N1CCC[C@H]1C(=O)N[C@@H](CO)C(=O)N[C@@H](CO)C(=O)NCC(=O)N[C@@H](C)C(=O)N1CCC[C@H]1C(=O)N1CCC[C@H]1C(=O)N1CCC[C@H]1C(=O)N[C@@H](CO)C(N)=O)[C@@H](C)CC)[C@@H](C)CC)[C@@H](C)CC)[C@@H](C)CC` [Example 314], the EC50 in assay [1] (hGLP-1R EC50, nM (SEM, n), cAMP, 0.1% bovine casein (no human serum albumin)) is 0.673 nM; in assay [2] (hGCGR EC50, nM (SEM, n), 0.1% bovine casein and 1.0% human serum albumin, 37° C., geometric mean), greater than 9950 nM; in assay [2] (hGCGR EC50, nM (SEM, n), cAMP, 37° C., 0.1% bovine casein (no human serum albumin), geometric mean), greater than 9950 nM. Moreover, the Emax in assay [3] (HEK293, read-out: hGIPR Emax, % ± SEM, cAMP, 37° C., 0.1% bovine casein, percent of maximal response to GIP(1-42)NH2, arithmetic mean) was 100%.

In the case of `CCCCCCCCCCCC(=O)N[C@@H](CCC(=O)NCCOCCOCC(=O)NCCCC[C@H](NC(=O)[C@H](CCCN)NC(=O)[C@H](CC(=O)O)NC(=O)[C@H](CC(C)C)NC(=O)[C@](C)(CC(C)C)NC(=O)[C@@H](NC(=O)C(C)(C)NC(=O)[C@H](CCCCNC(=O)COCCOCCNC(=O)CC[C@H](NC(=O)CCCCCCCCCCC)C(=O)O)NC(=O)[C@H](CC(=O)O)NC(=O)[C@H](CO)NC(=O)[C@@H](NC(=O)[C@](C)(Cc1ccccc1F)NC(=O)[C@@H](NC(=O)CNC(=O)[C@H](CCC(=O)O)NC(=O)C(C)(C)NC(=O)[C@@H](N)Cc1ccc(O)cc1)[C@@H](C)O)[C@@H](C)O)[C@@H](C)CC)C(=O)N[C@@H](C)C(=O)N[C@@H](CCC(N)=O)C(=O)NC(C)(C)C(=O)N[C@@H](CCC(=O)O)C(=O)N[C@@H](Cc1ccccc1)C(=O)N[C@H](C(=O)N[C@H](CCC(=O)O)C(=O)N[C@@](C)(Cc1ccc(O)cc1)C(=O)N[C@@H](CC(C)C)C(=O)N[C@H](C(=O)N[C@@H](CCC(=O)O)C(=O)NCC(=O)NCC(=O)N1CCC[C@H]1C(=O)N[C@@H](CO)C(=O)N[C@@H](CO)C(=O)NCC(=O)N[C@@H](C)C(=O)N1CCC[C@H]1C(=O)N1CCC[C@H]1C(=O)N1CCC[C@H]1C(=O)N[C@@H](CO)C(N)=O)[C@@H](C)CC)[C@@H](C)CC)C(=O)O` [Example 425], the EC50 in assay [1] (setting [4]) is 0.0965 nM; in assay [2] (setting [6]) it was greater than 9950 nM; in assay [2] (cAMP, 37° C., 0.1% bovine casein and 1.0% human serum albumin, geometric mean (SEM, n), read-out: hGCGR EC50, nM (SEM, n)) it was greater than 9950 nM; in assay [3] (37° C.) it was 0.00943 nM. In addition, the Emax in assay [3] (HEK293, cAMP, 37° C., 0.1% bovine casein and 1.0% human serum albumin, percent of maximal response to GIP(1-42)NH2, read-out: hGIPR Emax, % ± SEM) worked out at 89.9%; in assay [3] (setting [8]), 97.6%.

On to `CC[C@H](C)[C@H](NC(=O)[C@H](CC(C)C)NC(=O)[C@](C)(Cc1ccc(O)cc1)NC(=O)[C@@H](CCC(=O)O)NC(=O)[C@@H](NC(=O)[C@H](Cc1ccccc1)NC(=O)[C@H](CCC(=O)O)NC(=O)C(C)(C)NC(=O)[C@H](CCC(N)=O)NC(=O)[C@H](C)NC(=O)[C@H](CCCCNC(=O)COCCOCCNC(=O)COCCOCCNC(=O)CC[C@H](NC(=O)CCCCCCCCCCCCC(=O)O)C(=O)O)NC(=O)[C@H](CCCN)NC(=O)[C@H](CC(=O)O)NC(=O)[C@H](CC(C)C)NC(=O)[C@](C)(CC(C)C)NC(=O)[C@@H](NC(=O)[C@H](CO)NC(=O)C1(NC(=O)[C@H](CC(=O)O)NC(=O)[C@H](CO)NC(=O)[C@@H](NC(=O)[C@](C)(Cc2ccccc2F)NC(=O)[C@@H](NC(=O)CNC(=O)[C@H](CCC(=O)O)NC(=O)C(C)(C)NC(=O)[C@@H](N)Cc2ccc(O)cc2)[C@@H](C)O)[C@@H](C)O)CCCCC1)[C@@H](C)CC)[C@@H](C)CC)C(=O)N[C@@H](CCC(=O)O)C(=O)NCC(=O)NCC(=O)N[C@@H](CCCCNC(=O)COCCOCCNC(=O)COCCOCCNC(=O)CC[C@H](NC(=O)CCCCCCCCCCCCC(=O)O)C(=O)O)C(=O)N[C@@H](CO)C(=O)N[C@@H](CO)C(=O)NCC(=O)N[C@@H](C)C(=O)N1CCC[C@H]1C(=O)N1CCC[C@H]1C(=O)N1CCC[C@H]1C(=O)N[C@@H](CO)C(N)=O` [Example 54], for which the EC50 in assay [1] (0.1% bovine casein and 1.0% human serum albumin, read-out: hGLP-1R EC50, nM (SEM, n)) was 20.3 nM; in assay [2] (setting [5]), greater than 9950 nM; in assay [2] (cAMP, incubated at 37° C., 0.1% bovine casein (no human serum albumin), geometric mean, read-out: hGCGR EC50, nM (SEM, n)) it was greater than 9950 nM. The Emax in assay [3] (setting [7]) was 85.6%; in assay [3] (HEK293, percent of maximal response to GIP(1-42)NH2, 37° C., 0.1% bovine casein, arithmetic mean, read-out: hGIPR Emax, % ± SEM), 113%.

As usually defined, the Emax is the maximal effect, on the per cent scale that the assay sets. The EC50 is the concentration at which the effect is half-maximal.
